# Read-outs that look alike come from different tables or passages of the source.
# Assays:
# Rhizoctonia solani [1] = test: Example F rice sheath blight; format: in vivo; settings: Rhizoctonia solani, 144 h, read-out: disease control rating, Ex. F
# Outline: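 Foliar run-off spray, rice seedlings: compound at 100 or 20 ppm in aqueous 250 ppm polyhydric alcohol ester surfactant, acetone 6% v/v final.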
# Pyricularia oryzae = test: whole plant or invertebrate; format: in vivo; settings: Pyricularia oryzae, 120 h; for pest or weed control at 20 ppm: read-out: disease control rating, Ex. E, 20 PPM; for pest or weed control at 100 ppm: read-out: disease control rating, Ex. E, 100 PPM
# [2] = tested on: Candida albicans ATCC 11651; test: In vitro antifungal MIC, microtiter broth dilution; settings: for MIC: Candida albicans, ATCC11651, 24 h, read-out: MIC values, C. albicans, 30°, 24 hours
# Botrytis cinerea = test: Example C bean grey mold; format: in vivo; settings: Botrytis cinerea, 24 h, read-out: disease control rating, Ex. C
# Outline: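 Spray rates: 100 and 20 ppm. Vehicle: purified water with 6% acetone by final volume plus 250 ppm TREM 014 (polyhydric alcohol esters). Host plants, broad bean seedlings, were wetted until run-off.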
# Pythium aphanadermatum = test: Example J cucumber damping off; format: in vivo; settings: Pythium, 336 h; 5 kg/ha; read-out: disease control rating, Ex. J
# Outline: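 This cucumber damping-off test used soil and seeds infested with a sand–cereal preparation carrying mycelium of Pythium aphanadermatum. Incubation took place in a growth chamber held at 30° C. for 14 days. Afterwards, the extent of disease was scored as a disease control rating.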
# [3] = tested on: Fusarium oxysporum f. sp. cucumerinum; test: Example L cucumber wilt; format: in vivo; settings: 336 h, 5 kg/ha, read-out: disease control rating, Ex. L
# Procedure: […] Seeds and soil were then inoculated with a mixture of sand, cereal and mycelium of the fungus Fusarium oxysporum f. sp. cucumerinum, causal agent of cucumber wilt, and incubated in a growth chamber at 30° C. for 14 days. Disease ratings were then made.
# Venturia inaequalis = test: Example A apple scab; format: in vivo; settings: read-out: disease control rating, Ex. A
# Outline: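 Spray application to run-off on apple seedlings; compound at 100 or 20 ppm in water with 250 ppm TREM 014 (polyhydric alcohol esters) and 6% acetone of final volume.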
# Plasmorpara viticola = test: Example I grape downy mildew; format: in vivo; settings: read-out: disease control rating, Ex. I
# Outline: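 Applied as a foliar spray to run-off on grape seedlings, the compounds were formulated at 100 or 20 ppm in water containing 250 ppm TREM 014, with acetone making up 6% of the volume.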
# [4] = tested on: Aspergillus fumigatus ATCC 28214; test: In vitro antifungal MIC, microtiter broth dilution; settings: Aspergillus fumigatus, ATCC28214, 24 h, read-out: MIC values, A. fumigatus, 30°, 24 hours
# Phytophthora infestans = test: whole plant or invertebrate; format: in vivo; settings: Phytophthora infestans, in Solanum lycopersicum, read-out: disease control rating, Ex. H, 100 PPM
# [5] = tested on: Cercosporidium personatum; test: Example B Peanut Late Leafspot; format: in vivo; settings: Nothopassalora personata, read-out: disease control rating, Ex. B
# Outline: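 Spray suspensions at 100 or 20 ppm, prepared from acetone solutions (acetone 6% of final volume) in water carrying 250 ppm of a polyhydric alcohol ester surfactant, were applied to peanut seedlings until run-off.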
# Puccinia recondita = test: Example G wheat leaf rust; format: in vivo; settings: read-out: disease control rating, Ex. G
# [6] = tested on: Candida albicans ATCC 11651; test: In vivo systemic Candida infection in mice, primary assay; set-up: species or system Candida albicans; CF-1 female mice; settings: Candida albicans, 150 mg/kg per day, read-out: % Survival
# Outline: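 CF-1 female mice (20 g, 10 per group) were infected IV with 0.2 ml of 1×10^7/ml C. albicans ATCC 11651, then given test compound subcutaneously at 50 or 150 mg/kg/day at 1 and 6 h post-infection and once daily for three more days. Survival was followed for 21 days against infected untreated mice; ≥70% protection at 14 days was scored active.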
# [7] = tested on: Erysiphe graminis f. sp. tritici; test: Example D wheat powdery mildew; format: in vivo; settings: Blumeria graminis, 144 h, read-out: disease control rating, Ex. D
# Outline: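 Seedling wheat was treated by spraying to run-off; formulation used acetone as co-solvent (6% final) and TREM 014 surfactant at 250 ppm, with compound at 100 or 20 ppm.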
# Rhizoctonia solani [8] = test: Example K cotton blight; format: in vivo; settings: 336 h, 5 kg/ha, read-out: disease control rating, Ex. K
# Procedure: […] Seeds and soil were then inoculated with a mixture of sand, cereal and mycelium of the fungus Rhizoctonia solani, causal agent of cotton blight, and incubated in a growth chamber at 30° C. for 14 days. Disease ratings were then made.
# Sclerotium rolfsii = test: Example M southern blight; format: in vivo; settings: Agroathelia rolfsii, 336 h; 5 kg/ha; read-out: disease control rating, Ex. M
# Procedure: […] Seeds and soil were then inoculated with a mixture of sand, cereal and mycelium of the fungus Sclerotium rolfsii, causal agent of sourthern blight, and incubated in a growth chamber at 30° C. for 14 days. Disease ratings were then made.
Structure (SMILES),pest or weed control at 100 ppm (Rhizoctonia solani [1]),pest or weed control at 100 ppm (Pyricularia oryzae),MIC [2],pest or weed control at 100 ppm (Botrytis cinerea),pest or weed control at 5000 g/ha (Pythium aphanadermatum),pest or weed control at 5000 g/ha [3],pest or weed control at 100 ppm (Venturia inaequalis),pest or weed control at 100 ppm (Plasmorpara viticola),MIC [4],pest or weed control at 100 ppm (Phytophthora infestans),pest or weed control at 100 ppm (Puccinia recondita),"responders at 150 mg/kg ([6]; ATCC11651, 168 h, day 7)","responders at 150 mg/kg ([6]; ATCC11651, 336 h, day 14)","responders at 150 mg/kg ([6]; ATCC11651, 504 h, day 21)",pest or weed control at 100 ppm [7],pest or weed control at 100 ppm [5],other results
C=C(c1ccccc1)[C@](O)(Cn1cncn1)c1ccc(F)cc1 [Example 1276],97%,1%,0.03 µg/mL,96%,0%,0%,100%,0%,1.6 µg/mL,0%,100%,100%,70%,50%,100%,–,pest or weed control at 20 ppm (Rhizoctonia solani [1]): 52%; pest or weed control at 20 ppm (Pyricularia oryzae): 1%; pest or weed control at 20 ppm (Botrytis cinerea): 86%; pest or weed control at 20 ppm (Venturia inaequalis): 93%; pest or weed control at 20 ppm [5]: 100%; pest or weed control at 20 ppm (Puccinia recondita): 100%; pest or weed control at 20 ppm [7]: 100%
"C=C(c1ccccc1)C(O)(Cn1cncn1)c1ccc(F)cc1 (stereo not shown) [Example 49, 2-(4-Fluorophenyl)-3-phenyl-1-(1H-1,2,4-triazol-1-yl)-3-buten-2-ol]",96%,76%,0.03 µg/mL,62%,0%,0%,89%,0%,12.5 µg/mL,0%,100%,100%,90%,60%,100%,100%,–
C=C(c1ccc(F)cc1)C(O)(Cn1cncn1)c1ccc(Cl)cc1Cl (stereo not shown) [Example 2],100%,95%,≤ 0.4 µg/mL,93%,0%,0%,62%,99%,1.6 µg/mL,0%,100%,100%,100%,80%,98%,100%,–
C=C(c1ccc(F)cc1)C(O)(Cn1ncnc1I)c1ccccc1F (stereo not shown) [Example 1377],100%,58%,1.6 µg/mL,96%,0%,0%,100%,44%,100 µg/mL,0%,100%,–,–,–,92%,100%,–
C=C(c1cccc(F)c1)C(O)(Cn1cncn1)c1ccc(F)cc1 (stereo not shown) [Example 15],93%,1%,0.1 µg/mL,99%,0%,0%,100%,0%,50 µg/mL,26%,100%,100%,90%,60%,100%,100%,–
OC(Cn1cncn1)(c1ccc(F)cc1)C1(c2ccccc2)CO1 (stereo not shown) [Example 1527],35%,–,0.4 µg/mL,93%,0%,0%,0%,0%,6.3 µg/mL,0%,100%,100%,70%,20%,100%,100%,–
C=C(c1ccccc1)C(O)(Cn1cncn1)c1ccc(Cl)s1 (stereo not shown) [Example 618],–,0%,–,98%,0%,80%,100%,0%,–,0%,100%,–,–,–,89%,100%,pest or weed control at 5000 g/ha (Rhizoctonia solani [8]): 80%
"C=C(c1ccc(F)cc1)C(O)(Cn1cncn1)c1ccc(F)cc1 (stereo not shown) [Example 1, 2,3-Bis(4-fluorophenyl)-1-(1H-1,2,4-triazol-1-yl)-3-buten-2-ol]",97%,90%,–,81%,0%,0%,62%,12%,6.3 µg/mL,0%,100%,100%,100%,80%,98%,100%,"MIC values, C. albicans ([2]; 30°, 24 hours): ≤ 0.01 µg/mL"
C=C(c1ccc(F)cc1)C(O)(Cn1cncn1)C(C)C (stereo not shown) [Example 667],0%,0%,6.3 µg/mL,4%,–,0%,–,10%,25 µg/mL,0%,–,10%,0%,0%,–,–,pest or weed control at 20 ppm (Rhizoctonia solani [1]): 0%; pest or weed control at 20 ppm (Pyricularia oryzae): 0%; pest or weed control at 5000 g/ha (Sclerotium rolfsii): 0%; pest or weed control at 20 ppm (Botrytis cinerea): 7%; pest or weed control at 5000 g/ha (Rhizoctonia solani [8]): 0%; pest or weed control at 20 ppm (Venturia inaequalis): 13%; pest or weed control at 20 ppm [5]: 14%; pest or weed control at 20 ppm (Puccinia recondita): 0%; pest or weed control at 20 ppm [7]: 39%
